Consider seven molecules from patent US6203835A, “Use of hydroxy acid or a product containing the same in animal feed” (Oy Extracta Ltd., priority 1995, dated 2001).

As a reminder, the pKa is the pH at which an ionisable group is half protonated. A higher pKa goes with a group that holds its proton tightly. What is called LD50 is the dose expected to kill half of the subjects tested. A high value points to a less toxic substance.

Where a name gives a salt, the structure may show the parent alone.

One data set concerns micro-organisms. The experiment in a line: Antimicrobial effect of hydroxy acids on micro-organisms in vitro.
Another data set can be described thus: physchem. As to conditions: for pH of maximum buffer capacity: mixture of the acid and a salt of said acid with a strong base. An excerpt:
(§1) The acting mechanism of alpha-hydroxy acids on microbes is unclear. It is plausible that these acids act as antimetabolites of the corresponding alpha-amino acids. […] After their resorption into the organism, these acids are metabolized through the same paths as the corresponding alpha-amino acids.

The nature of a further data set: Intravenous LD50 in mice. As to conditions: mouse.
Excerpt: as §1

For a further data set, the system named is Salmonella infantis. Description: Effect of hydroxy acids on growth of Salmonella infantis in vitro (turbidity 600 nm). The data set is classed as cell-based. As to conditions: MRS medium, 37° C., 20 hours; 0.03, 0.1 and 0.3% tested. The procedure: In this example, an investigation was carried out into the sensitivity of Salmonella infantis bacterium representing the genus Salmonella to two hydroxy acids: L-2-hydroxy-3-methyl butyric acid (HMB) and L-2-hydroxy-4-methyl valeric acid (HMV). The acids were added to the MRS growth medium of the bacterium so that resulting concentrations were controlled to 0.03, 0.1 and 0.3%. The organism growth was followed at 37° C. for 20 hours by measuring the turbidity of the culture at 600 nm wavelength.

The test system of data set [1] is coliform bacterium strain (104). The experiment in a line: Effect of hydroxy acids on growth of coliform strain in vitro (turbidity 600 nm). Format: cell-based. The note with it: MRS medium, 37° C.; 0.03, 0.1 and 0.3% tested. The procedure:
(§2) In the example, the sensitivity of microbes isolated from the small intestine of broiler chickens to hydroxy acids were measured under laboratory conditions. For the test, a representative test organism species from each of the bacterium groups mentioned above was chosen. Of the hydroxy acids, HMB (2-hydroxy-3-methyl butric acid) and HMV (2-hydroxy-4-methyl valeric acid) were separately tested using their a mixture of their L- and D-forms as well as the pure L-form. The acids were added to the MRS growth medium of the bacterium so that resulting concentrations were controlled to 0.03, 0.1 and 0.3%. The organism growth was followed at 37° C. by measuring the turbidity of the culture at 600 nm wavelength.

Data set [2] relates to Enterococcus strain (111). Description: Effect of hydroxy acids on growth of Enterococcus strain in vitro (turbidity 600 nm). The data set is classed as cell-based. As to conditions: MRS medium, 37° C.; 0.03, 0.1 and 0.3% tested. The procedure:
as §2

The next data set relates to leucine amino peptidase. As to conditions: cited from earlier work.

As to `CC(C)CC(O)C(=O)O` (racemic) [d,l-2-hydroxy-4-methyl valeric acid], the “number of different micro-organisms on which an antimicrobial effect was shown” value in the data set with micro-organisms is given as “about seventy”. In addition, in the data set “physchem”, the pKa was 3.8 and the “pH of maximum buffer capacity” value amounted to 3.8 pH.

In “Intravenous LD50 in mice” (in vivo), `CC(C)CC(O)C(=O)O` (racemic) [Na-salt of d,l-2-hydroxy-4-methyl] came in with an LD50 of 650 mg/kg.

Consider `CC(C)C[C@H](O)C(=O)O` [HMV, L-2-hydroxy-4-methyl valeric acid], for which the “hydroxy acid concentration clearly inhibiting growth” value with Salmonella infantis is 0.1%. In addition, in data set [1], the “hydroxy acid concentration effectively inhibiting growth” value turned out to be 0.1%. The growth-inhibiting effect result in data set [2] was “clear growth-inhibiting effect”.

Regarding `CC(C)C(O)C(=O)O` (racemic) [d,l-2-hydroxy-3-methyl butyric acid], the “number of different micro-organisms on which an antimicrobial effect was shown” value with micro-organisms is given as “about seventy”. Besides, in “physchem”, the pKa was 3.8 and the “pH of maximum buffer capacity” value was found to be 3.8 pH.

`CC(C)[C@H](O)C(=O)O` [HMB, L-2-hydroxy-3-methyl butyric acid]: the “hydroxy acid concentration clearly inhibiting growth” value in the data set with Salmonella infantis amounted to 0.1%. The “hydroxy acid concentration effectively inhibiting growth” value in data set [1] was found to be 0.1%. Besides, the growth-inhibiting effect result in data set [2] is “clear growth-inhibiting effect”.

With `CC(C)CC(O)C(=O)O` (stereo not drawn) [2-hydroxy-4-methyl valeric acid], in the data set on leucine amino peptidase, the “inhibition of leucine amino peptidase” value was “competitive inhibitor”.

As to `CC(C)C(O)C(=O)O` (racemic) [Na-salt of d,l-2-hydroxy-3-methyl], in the data set “Intravenous LD50 in mice” (iv), the LD50 came to 1080 mg/kg.
